Assay results from PMC12521730, “Quantitative dual-isotope preclinical SPECT/CT imaging and biodistribution of the mercury-197m/g theranostic pair with [^197m/gHg]HgCl2 and a [^197m/gHg]Hg-tetrathiol complex as a platform for radiopharmaceutical development” (EJNMMI Radiopharmacy and Chemistry, 2025).

Experiment: Ex vivo biodistribution (gamma counter)
Assay type: in vivo, healthy male C57BL/6 mice
Conditions: Hg-197g, 2 h post administration
Procedure: For animal injection, the tracer was prepared at high molar activity. Radiolabeling of H4Tetrathiol (10^–2 M in DMSO; 40 μL for imaging, 20 μL for bioD) (or DMSO, for [^197m/gHg]HgCl2 mice) with [^197m/gHg]HgCl2 (imaging: 26.7 MBq total m + g, 62 μL; bioD: 13.04 MBq total m + g, 31 μL) was performed in a mixture of ammonium acetate buffer (1 M; pH 7; 198 μL for imaging or 149 μL for bioD) and 6 M NaOH (72 μL or 38 μL required to achieve a pH of 7.5 after addition of activity, for imaging or BioD labeling, respectively). The reaction was allowed to stand for 1 h at 37 °C and quantitative (> 99%) non-isolated percentage radiochemical yield (%RCY) was confirmed via the iTLC methods mentioned above. Further, 100 µL of the reaction was diluted with 50 µL of PBS Tween-20 (0.01 M sodium phosphate, 0.15 M NaCl, 0.05% Tween-20) for imaging mice, or 50 µL of the reaction was diluted with 100 µL of PBS Tween-20 for BioD mice. The tracers were prepared immediately before injection to avoid radiolysis and minimize the tracer loss to any surfaces due to its lipophilicity. The injected doses of each isomer, ^197mHg and ^197gHg, were quantified by measuring an aliquot of known volume of each tracer preparation via HPGe gamma spectroscopy and decay corrected for time of injection using the Eqs. (1) and (2).
The study was conducted in compliance with the guidelines set by the Canadian Council on Animal Care (CCAC) and approved by the Animal Care Committee (ACC) at the University of British Columbia (A20-0132). A total of eight healthy male C57BL/6 mice weighing approximately 30 g for group 1 and 25 g for group 2 were used in the study. The mice were divided into two experimental groups: group 1 (n = 4) received free [^197m/gHg]HgCl2, while group 2 (n = 4) received [^197m/gHg]Hg-Tetrathiol. Within each group, one mouse was allocated for imaging, while the rest were designated for ex vivo biodistribution analysis. For SPECT imaging, the designated mice were anesthetized using isoflurane via a precision vaporizer. […] Once anesthetized, each imaging mouse received an intravenous (IV) injection via the lateral tail vein of 150 μL of [^197m/gHg]HgCl2 (0.492 MBq ^197mHg + 3.171 MBq ^197gHg) or [^197m/gHg]Hg-Tetrathiol (0.899 MBq ^197mHg + 4.230 MBq ^197gHg) in PBS Tween-20 (0.01 M Na Phosphate, 0.15 M NaCl, 0.05% Tween-20).
Mice received an IV injection of [^197m/gHg]HgCl2 (0.275 MBq ^197mHg + 1.758 MBq ^197gHg, 150 μL) or [^197m/gHg]Hg-Tetrathiol (0.384 MBq ^197mHg + 1.733 MBq ^197gHg, 150 μL) (n = 3 per group) via the lateral tail vein using a Tailveiner restrainer. After the injection, the mice were returned to their experimental cages and allowed unrestricted movement. Biodistribution studies were conducted 2 h after administration. Mice were humanely euthanized with an overdose of isoflurane followed by cardiac puncture to collect blood pool activity. The organs of interest were fully extracted, cleaned of blood without rinsing, weighed, and analysed for radioactivity using a calibrated gamma counter with the 55–93 keV energy window for ^197gHg and the 110–160 keV energy window for ^197mHg (Packard Cobra II, Perkin Elmer, Waltham, MA, USA). The stomach and intestines were carefully cleaned prior to analysis to remove residual contents. For tissues and fluids that could not be fully removed (muscle, blood and bone) activity values were extrapolated based on standardised organ weights for age- and sex-matched mice tables to ensure accurate normalization (Davies and Morris [1993]; Foster et al. [2014]). The stomach and whole intestines were cleaned before analysis. The radioactivity measurements were decay corrected for time of injection using the Eqs. (1) and (2). The results are reported as the percentage of the injected activity per gram of tissue (%IA/g) and percentage of the injected activity per tissue (%IA/organ).

O=C(CC[S-])OCC(COC(=O)CC[S-])(COC(=O)CC[S-])COC(=O)CC[S-].[Hg+2] [[^197m/gHg]Hg-Tetrathiol]
Animal 1 (%IA/Organ): bladder: 0.00 %IA/Organ
Animal 1 (%IA/Organ): blood: 0.13 %IA/Organ
Animal 1 (%IA/Organ): bone: 3.25 %IA/Organ
Animal 1 (%IA/Organ): brain: 0.01 %IA/Organ
Animal 1 (%IA/Organ): feces: 0.00 %IA/Organ
Animal 1 (%IA/Organ): heart: 0.07 %IA/Organ
Animal 1 (%IA/Organ): kidneys: 1.54 %IA/Organ
Animal 1 (%IA/Organ): large intestine: 0.02 %IA/Organ
Animal 1 (%IA/Organ): liver: 110.52 %IA/Organ
Animal 1 (%IA/Organ): lungs: 0.95 %IA/Organ
Animal 1 (%IA/Organ): muscle: 0.14 %IA/Organ
Animal 1 (%IA/Organ): pancreas: 0.01 %IA/Organ
Animal 1 (%IA/Organ): small intestine: 0.03 %IA/Organ
Animal 1 (%IA/Organ): spleen: 3.22 %IA/Organ
Animal 1 (%IA/Organ): stomach: 0.02 %IA/Organ
Animal 1 (%IA/Organ): tail: 0.69 %IA/Organ
Animal 1 (%IA/Organ): urine: 0.00 %IA/Organ
Animal 1 (%IA/g) g: bladder: 0.05 %IA/g
Animal 1 (%IA/g) g: blood: 0.09 %IA/g
Animal 1 (%IA/g) g: bone: 1.72 %IA/g
Animal 1 (%IA/g) g: brain: 0.03 %IA/g
Animal 1 (%IA/g) g: feces: 0.04 %IA/g
Animal 1 (%IA/g) g: heart: 0.55 %IA/g
Animal 1 (%IA/g) g: kidneys: 4.07 %IA/g
Animal 1 (%IA/g) g: large intestine: 0.12 %IA/g
Animal 1 (%IA/g) g: liver: 85.85 %IA/g
Animal 1 (%IA/g) g: lungs: 7.12 %IA/g
Animal 1 (%IA/g) g: muscle: 0.01 %IA/g
Animal 1 (%IA/g) g: pancreas: 0.06 %IA/g
Animal 1 (%IA/g) g: small intestine: 0.14 %IA/g
Animal 1 (%IA/g) g: spleen: 44.55 %IA/g
Animal 1 (%IA/g) g: stomach: 0.16 %IA/g
Animal 1 (%IA/g) g: tail: 1.37 %IA/g
Animal 1 (%IA/g) g: urine: 0.03 %IA/g
Animal 2 (%IA/Organ): bladder: 0.00 %IA/Organ
Animal 2 (%IA/Organ): blood: 0.17 %IA/Organ
Animal 2 (%IA/Organ): bone: 2.68 %IA/Organ
Animal 2 (%IA/Organ): brain: 0.01 %IA/Organ
Animal 2 (%IA/Organ): feces: 0.00 %IA/Organ
Animal 2 (%IA/Organ): heart: 0.09 %IA/Organ
Animal 2 (%IA/Organ): kidneys: 0.82 %IA/Organ
Animal 2 (%IA/Organ): large intestine: 0.01 %IA/Organ
Animal 2 (%IA/Organ): liver: 133.87 %IA/Organ
Animal 2 (%IA/Organ): lungs: 0.87 %IA/Organ
Animal 2 (%IA/Organ): muscle: 0.22 %IA/Organ
Animal 2 (%IA/Organ): pancreas: 0.01 %IA/Organ
Animal 2 (%IA/Organ): small intestine: 0.02 %IA/Organ
Animal 2 (%IA/Organ): spleen: 4.01 %IA/Organ
Animal 2 (%IA/Organ): stomach: 0.04 %IA/Organ
Animal 2 (%IA/Organ): tail: 0.56 %IA/Organ
Animal 2 (%IA/Organ): urine: 0.00 %IA/Organ
Animal 2 (%IA/g) g: bladder: 0.04 %IA/g
Animal 2 (%IA/g) g: blood: 0.11 %IA/g
Animal 2 (%IA/g) g: bone: 1.37 %IA/g
Animal 2 (%IA/g) g: brain: 0.02 %IA/g
Animal 2 (%IA/g) g: feces: 0.05 %IA/g
Animal 2 (%IA/g) g: heart: 0.74 %IA/g
Animal 2 (%IA/g) g: kidneys: 2.02 %IA/g
Animal 2 (%IA/g) g: large intestine: 0.05 %IA/g
Animal 2 (%IA/g) g: liver: 103.98 %IA/g
Animal 2 (%IA/g) g: lungs: 6.17 %IA/g
Animal 2 (%IA/g) g: muscle: 0.02 %IA/g
Animal 2 (%IA/g) g: pancreas: 0.04 %IA/g
Animal 2 (%IA/g) g: small intestine: 0.07 %IA/g
Animal 2 (%IA/g) g: spleen: 61.57 %IA/g
Animal 2 (%IA/g) g: stomach: 0.32 %IA/g
Animal 2 (%IA/g) g: tail: 1.15 %IA/g
Animal 2 (%IA/g) g: urine: 0.03 %IA/g
Animal 3 (%IA/Organ): bladder: 0.00 %IA/Organ
Animal 3 (%IA/Organ): blood: 0.18 %IA/Organ
Animal 3 (%IA/Organ): bone: 2.26 %IA/Organ
Animal 3 (%IA/Organ): brain: 0.01 %IA/Organ
Animal 3 (%IA/Organ): feces: 0.00 %IA/Organ
Animal 3 (%IA/Organ): heart: 0.09 %IA/Organ
Animal 3 (%IA/Organ): kidneys: 1.16 %IA/Organ
Animal 3 (%IA/Organ): large intestine: 0.02 %IA/Organ
Animal 3 (%IA/Organ): liver: 131.25 %IA/Organ
Animal 3 (%IA/Organ): lungs: 1.12 %IA/Organ
Animal 3 (%IA/Organ): muscle: 0.21 %IA/Organ
Animal 3 (%IA/Organ): pancreas: 0.01 %IA/Organ
Animal 3 (%IA/Organ): small intestine: 0.02 %IA/Organ
Animal 3 (%IA/Organ): spleen: 4.84 %IA/Organ
Animal 3 (%IA/Organ): stomach: 0.09 %IA/Organ
Animal 3 (%IA/Organ): tail: 0.27 %IA/Organ
Animal 3 (%IA/Organ): urine: 0.00 %IA/Organ
Animal 3 (%IA/g) g: bladder: 0.03 %IA/g
Animal 3 (%IA/g) g: blood: 0.13 %IA/g
Animal 3 (%IA/g) g: bone: 1.20 %IA/g
Animal 3 (%IA/g) g: brain: 0.03 %IA/g
Animal 3 (%IA/g) g: feces: 0.00 %IA/g
Animal 3 (%IA/g) g: heart: 0.82 %IA/g
Animal 3 (%IA/g) g: kidneys: 3.17 %IA/g
Animal 3 (%IA/g) g: large intestine: 0.10 %IA/g
Animal 3 (%IA/g) g: liver: 159.50 %IA/g
Animal 3 (%IA/g) g: lungs: 8.45 %IA/g
Animal 3 (%IA/g) g: muscle: 0.02 %IA/g
Animal 3 (%IA/g) g: pancreas: 0.08 %IA/g
Animal 3 (%IA/g) g: small intestine: 0.09 %IA/g
Animal 3 (%IA/g) g: spleen: 77.82 %IA/g
Animal 3 (%IA/g) g: stomach: 0.89 %IA/g
Animal 3 (%IA/g) g: tail: 0.56 %IA/g
Animal 3 (%IA/g) g: urine: 0.03 %IA/g
Animal 4 (%IA/Organ): bladder: 0.00 %IA/Organ
Animal 4 (%IA/Organ): blood: 0.15 %IA/Organ
Animal 4 (%IA/Organ): bone: 2.62 %IA/Organ
Animal 4 (%IA/Organ): brain: 0.01 %IA/Organ
Animal 4 (%IA/Organ): feces: 0.00 %IA/Organ
Animal 4 (%IA/Organ): heart: 0.09 %IA/Organ
Animal 4 (%IA/Organ): kidneys: 1.00 %IA/Organ
Animal 4 (%IA/Organ): large intestine: 0.01 %IA/Organ
Animal 4 (%IA/Organ): liver: 107.31 %IA/Organ
Animal 4 (%IA/Organ): lungs: 0.93 %IA/Organ
Animal 4 (%IA/Organ): muscle: 0.20 %IA/Organ
Animal 4 (%IA/Organ): pancreas: 0.01 %IA/Organ
Animal 4 (%IA/Organ): small intestine: 0.02 %IA/Organ
Animal 4 (%IA/Organ): spleen: 4.62 %IA/Organ
Animal 4 (%IA/Organ): stomach: 0.01 %IA/Organ
Animal 4 (%IA/Organ): tail: 2.67 %IA/Organ
Animal 4 (%IA/Organ): urine: 0.00 %IA/Organ
Animal 4 (%IA/g) g: bladder: 0.07 %IA/g
Animal 4 (%IA/g) g: blood: 0.10 %IA/g
Animal 4 (%IA/g) g: bone: 1.40 %IA/g
Animal 4 (%IA/g) g: brain: 0.02 %IA/g
Animal 4 (%IA/g) g: feces: 0.01 %IA/g
